From patent publication US11485742B2, “2-azaspiro[3.4]octane derivatives as M4 agonists” (NOVARTIS AG, priority 2019, dated 2022) come the findings set out here.

The structures appear in SMILES notation.

The EC50 is the concentration that produces a half-maximal response.

Common to all, as to format: cell-based
Experiment [1] concerns the target T1, human cloned CHRM2 receptor (Homo sapiens, UniProt P08172).
T1 construct: expressed in transfected cells; host or cells: CHO-K1 (M2_CHO)
T1 sequence (P08172 1-466): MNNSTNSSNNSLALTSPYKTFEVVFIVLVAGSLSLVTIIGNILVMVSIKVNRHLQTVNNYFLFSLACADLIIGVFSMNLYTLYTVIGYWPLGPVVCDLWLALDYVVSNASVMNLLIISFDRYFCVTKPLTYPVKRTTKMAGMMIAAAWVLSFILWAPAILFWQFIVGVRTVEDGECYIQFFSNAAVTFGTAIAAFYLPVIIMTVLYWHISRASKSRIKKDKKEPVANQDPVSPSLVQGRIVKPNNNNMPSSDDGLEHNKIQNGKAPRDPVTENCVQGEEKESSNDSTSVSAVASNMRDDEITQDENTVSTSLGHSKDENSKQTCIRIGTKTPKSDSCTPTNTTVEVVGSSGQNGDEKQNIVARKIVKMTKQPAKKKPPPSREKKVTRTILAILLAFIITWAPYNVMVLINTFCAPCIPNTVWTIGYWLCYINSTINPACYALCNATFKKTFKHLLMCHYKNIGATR
Briefly: CHRM2 Ca++ Flux Assay (M2_CHO cells, agonist mode). The note with it: M2 CHO cells; for EC50: agonist mode, geometric mean if tested more than once, read-out: M2 FDSS EC50; for Emax: Percent Activity (PA) measured to EC100 of Carbachol, read-out: M2 FDSS PA %. The procedure: (§1) The above examples were characterized by measuring the intracellular mobilization of Ca^++ ions caused by signaling events mediated by the receptor. The Intra-cellular Calcium flux levels were captured by the highly sensitive Ca^++ indicator, Calcium Assay Kit (BD Biosciences; Catalog Number 640178. The fluorescent activity from all receptors were monitored by the fluorescent imager, FDSS 7000EX (Hamamatsu) over a span of 3 minutes. The change in Calcium flux was readily captured upon activation with the muscarinic orthosteric agonist, Carbachol.
(§2) CHO-K1 cells stably expressing the human cloned CHRM2 receptor (M2_CHO cells) were grown and maintained in a monolayer culture with F12/HAM (Life Technologies) supplemented with 10% Fetal Bovine Serum, 1×Pen-Strep, and 0.4 mg/mL Geneticin in a humidified atmosphere (5% CO2) at 37° C. The cultures were grown to 80-90% confluency in T150 flasks (Corning) and washed with 1×DPBS and lifted with 0.05% Trypsin (Life Technologies). The cells were then spun (1K rpm, 3 minutes) and frozen using Recovery Cell Culture Freezing Media (Gibco Technologies). Cells were stored in liquid nitrogen and thawed a day before the assay.
Prior to the day of the assay, stable M2 CHO cells were thawed and plated on Greiner 384 well TC treated plate at a density of 12K cells/well and kept overnight in a humidified atmosphere (5% CO2) at 37° C. The following day, the cells were loaded with Ca^++ dye (BD Biosciences) using Loading Buffer (HBSS +Ca/+Mg, 20 mM HEPES, 2.5 mM Probenecid) and placed back in cell incubator for a minimum of 1 hour and maximum of 2 hours. After incubation, the dye was replaced with Assay Buffer (HBSS −Ca/−Mg, 20 mM HEPES, 2.5 mM Probenecid) supplemented with 20 μM ATP (Sigma Aldrich) and kept at room temperature for 60 minutes prior before running on cell imager. The FDSS 7000EX (Hamamatsu) was used to acquire Ca^++ traces from cells in response to compound treatment and the data was used to generate dose response curves in agonist mode. All compounds were serially diluted in DMSO then prepared in Assay Buffer for Ca^−+ flux studies. The dose response curves were generated from the average of triplicate wells obtained from each data point and used a non-linear regression of four parameter dose response algorithm. The Percent Activity (PA) was measured to EC100 of Carbachol.
(§3) If an Example was tested more than once in an assay, then the values below represent the geometric mean of the results from each independent experiment.

Experiment [2] deals with T2, human cloned CHRM3 receptor (Homo sapiens, UniProt P20309).
T2 construct: expressed in transfected cells; host or cells: CHO-K1 (M3_CHO)
T2 sequence (P20309 whole entry): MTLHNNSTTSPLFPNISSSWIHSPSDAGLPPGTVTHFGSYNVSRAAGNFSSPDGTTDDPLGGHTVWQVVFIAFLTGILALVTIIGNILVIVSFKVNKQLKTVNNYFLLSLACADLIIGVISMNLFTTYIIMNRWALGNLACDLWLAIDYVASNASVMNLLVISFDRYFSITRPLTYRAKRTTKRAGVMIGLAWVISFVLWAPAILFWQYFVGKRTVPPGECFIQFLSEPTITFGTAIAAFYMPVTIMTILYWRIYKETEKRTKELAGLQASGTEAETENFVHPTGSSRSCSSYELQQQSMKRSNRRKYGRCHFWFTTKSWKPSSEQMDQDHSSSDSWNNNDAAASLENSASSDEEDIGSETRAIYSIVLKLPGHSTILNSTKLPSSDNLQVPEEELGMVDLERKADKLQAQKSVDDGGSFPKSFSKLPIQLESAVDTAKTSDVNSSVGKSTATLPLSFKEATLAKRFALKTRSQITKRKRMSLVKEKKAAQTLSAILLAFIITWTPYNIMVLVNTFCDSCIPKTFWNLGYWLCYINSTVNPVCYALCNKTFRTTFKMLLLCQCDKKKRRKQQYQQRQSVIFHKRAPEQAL
Briefly: CHRM3 Ca++ Flux Assay (M3_CHO cells, agonist mode). The following applies: for Emax: Percent Activity (PA) measured to EC100 of Carbachol, read-out: M3 FDSS PA %; for EC50: agonist mode, geometric mean if tested more than once, read-out: M3 FDSS EC50. The procedure:
as §1
as §2, with “CHRM3” for “CHRM2”, “(M3_CHO” for “(M2_CHO”, “IX Pen-Strep,” for “1×Pen-Strep,”, “assay. A similar procedure was used for cells stably expressing the human cloned CHRM5 receptor (M5_CHO).” for “assay.”
(§4) Prior to the day of the assay, stable M3_CHO or M5_CHO cells were thawed and plated on Greiner 384 well black TC treated plates at 12K cells/well in F12/DMEM supplemented with 10% FBS (Hyclone) and kept overnight in a humidified atmosphere (5% CO2) at 37° C. The next day, cells were loaded with Ca^++ dye (BD Biosciences) using Loading Buffer (HBSS +Ca/+Mg, 20 mM HEPES, 2.5 mM Probenecid) and placed back in cell incubator for a minimum of 1 hour. After incubation, the dye was replaced with Assay Buffer (HBSS −Ca/−Mg, 20 mM HEPES, 2.5 mM Probenecid) and kept at room temperature in the dark before running on cell imager. The FDSS 7000EX (Hamamatsu) was used to acquire Ca^+− traces from cells treated with 11 point dose response of compounds in triplicate in order to generate dose response curves in agonist mode. All compounds were serially diluted in DMSO then prepared in Assay Buffer for Ca^++ flux studies. The dose response curves were generated from the average of triplicate wells obtained from each data point and used a non-linear regression of four parameter dose response algorithm. The Percent Activity (PA) was measured to EC100 of Carbachol.
as §3

Experiment [3] addresses T3, human cloned CHRM5 receptor (Homo sapiens, UniProt P08912).
T3 construct: expressed in transfected cells; host or cells: CHO (M5_CHO)
T3 sequence (P08912 1-532): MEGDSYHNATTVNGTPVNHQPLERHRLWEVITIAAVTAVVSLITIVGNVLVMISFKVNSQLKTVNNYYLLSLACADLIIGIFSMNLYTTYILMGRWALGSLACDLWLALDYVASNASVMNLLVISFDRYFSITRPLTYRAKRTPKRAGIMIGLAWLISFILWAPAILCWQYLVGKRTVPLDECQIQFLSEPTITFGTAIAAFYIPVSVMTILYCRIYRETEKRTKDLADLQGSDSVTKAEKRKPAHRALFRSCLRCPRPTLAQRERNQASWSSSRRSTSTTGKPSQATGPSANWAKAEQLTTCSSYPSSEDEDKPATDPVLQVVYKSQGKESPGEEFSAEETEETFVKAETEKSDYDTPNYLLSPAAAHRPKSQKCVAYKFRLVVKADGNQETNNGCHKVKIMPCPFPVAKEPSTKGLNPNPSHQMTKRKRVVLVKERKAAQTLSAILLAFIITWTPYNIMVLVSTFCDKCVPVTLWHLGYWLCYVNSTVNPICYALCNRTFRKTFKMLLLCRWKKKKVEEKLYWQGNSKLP
Nature of the experiment: CHRM5 Ca++ Flux Assay (M5_CHO cells, agonist mode). The following applies: for Emax: Percent Activity (PA) measured to EC100 of Carbachol, read-out: M5 FDSS PA %; for EC50: agonist mode, geometric mean if tested more than once, read-out: M5 FDSS EC50. How it is done: as §1
as §2, with “CHRM3” for “CHRM2”, “(M3_CHO” for “(M2_CHO”, “IX Pen-Strep,” for “1×Pen-Strep,”, “assay. A similar procedure was used for cells stably expressing the human cloned CHRM5 receptor (M5_CHO).” for “assay.”
as §4, §3

Turning to `Fc1cc(F)c(OC2COC2)c(C2CCN([C@@H]3COC4(C3)CN(c3nnco3)C4)CC2)c1` [Example 2EE, (S)-7-(4-(3,5-difluoro-2-(oxetan-3-yloxy)phenyl)piperidin-1-yl)-2-(1,3,4-oxadiazol-2-yl)-5-oxa-2-azaspiro[3.4]octane], the EC50 was 2.94 µM in experiment [1], more than 25 µM in experiment [2] and more than 25 µM in experiment [3]. Also, the Emax in experiment [1] came to 50%; in experiment [2], 0%; in experiment [3], 0%.

On to `Fc1ccc(OC[C@@H]2COCCO2)c(C2CCN([C@@H]3COC4(C3)CN(c3nncs3)C4)CC2)c1` [Example 5L, (S)-7-(4-(2-(((S)-1,4-dioxan-2-yl)methoxy)-5-fluorophenyl)piperidin-1-yl)-2-(1,3,4-thiadiazol-2-yl)-5-oxa-2-azaspiro[3.4]octane], for which the concentration for a half-maximal effect (EC50) in experiment [1] was 0.456 µM; in experiment [2], more than 25 µM; in experiment [3], more than 25 µM. Moreover, the Emax amounted to 32% in experiment [1], 0% in experiment [2] and 0% in experiment [3].

Consider `COc1ccc(F)cc1C1CCN([C@@H]2COC3(C2)CN(c2ncco2)C3)CC1` [Example 4I, (S)-7-(4-(5-fluoro-2-methoxyphenyl)piperidin-1-yl)-2-(oxazol-2-yl)-5-oxa-2-azaspiro[3.4]octane], for which the EC50 in experiment [1], in experiment [2] and in experiment [3] was more than 25 µM throughout. Besides, the Emax in experiment [1], in experiment [2] and in experiment [3] was 0% throughout.

In the case of `Cc1nc(COc2ccccc2C2CCN([C@@H]3COC4(C3)CN(c3nncs3)C4)CC2)no1` [Example 5F, (S)-7-(4-(2-((5-methyl-1,2,4-oxadiazol-3-yl)methoxy)phenyl)piperidin-1-yl)-2-(1,3,4-thiadiazol-2-yl)-5-oxa-2-azaspiro[3.4]octane], the figures for the EC50 in experiment [1], in experiment [2] and in experiment [3] were 0.073 µM, 11.8 µM and 2.53 µM, respectively. In addition, the Emax in experiment [1] was 51%; in experiment [2], 15%; in experiment [3] it was 35%.

With `COc1cc(F)ccc1C1CCN([C@@H]2COC3(C2)CN(c2nncs2)C3)CC1` [Example 5T, (S)-7-(4-(4-fluoro-2-methoxyphenyl)piperidin-1-yl)-2-(1,3,4-thiadiazol-2-yl)-5-oxa-2-azaspiro[3.4]octane], the EC50 is 20 µM in experiment [1], more than 25 µM in experiment [2] and more than 25 µM in experiment [3]. The Emax in experiment [1] was determined as 35%; in experiment [2], 0%; in experiment [3] it was 0%.

Consider `Fc1ccc(OC2COC2)c(C2CCN([C@@H]3COC4(C3)CN(c3nncs3)C4)CC2)c1` [Example 5G, (S)-7-(4-(5-fluoro-2-(oxetan-3-yloxy)phenyl)piperidin-1-yl)-2-(1,3,4-thiadiazol-2-yl)-5-oxa-2-azaspiro[3.4]octane], for which the figures for the concentration giving a half-maximal response (EC50) in experiment [1], in experiment [2] and in experiment [3] were 0.657 µM, more than 25 µM and more than 25 µM, respectively. The Emax in experiment [1] came out at 35%; in experiment [2] it was 0%; in experiment [3], 0%.

`Fc1ccc(C2CCOCC2)c(C2CCN([C@@H]3COC4(C3)CN(c3ncco3)C4)CC2)c1` [Example 4W, (S)-7-(4-(5-fluoro-2-(tetrahydro-2H-pyran-4-yl)phenyl)piperidin-1-yl)-2-(oxazol-2-yl)-5-oxa-2-azaspiro[3.4]octane]: the EC50 in experiment [1] is 5.16 µM; in experiment [2], more than 25 µM; in experiment [3] it was more than 25 µM. Further, the Emax in experiment [1] came out at 21%; in experiment [2], 0%; in experiment [3] it was 0%.

With `c1ccc(C2CCN([C@@H]3COC4(C3)CN(c3ncco3)C4)CC2)c(-c2cncnc2)c1` [Example 4R, (S)-2-(oxazol-2-yl)-7-(4-(2-(pyrimidin-5-yl)phenyl)piperidin-1-yl)-5-oxa-2-azaspiro[3.4]octane], the EC50 in experiment [1] was 0.203 µM; in experiment [2], more than 25 µM; in experiment [3] it was more than 25 µM. Also, the Emax in experiment [1] was 12%; in experiment [2] it was 0%; in experiment [3] it was 0%.

For `COc1ccc(Cl)cc1C1CCN([C@@H]2COC3(C2)CN(c2ncns2)C3)CC1` [Example 5A, (S)-7-(4-(5-chloro-2-methoxyphenyl)piperidin-1-yl)-2-(1,2,4-thiadiazol-5-yl)-5-oxa-2-azaspiro[3.4]octane], the EC50 in experiment [1], in experiment [2] and in experiment [3] was more than 25 µM throughout. Further, the Emax came out at 26% in experiment [1], 0% in experiment [2] and 0% in experiment [3].
